Reference: US7790762B2, “Compounds and methods for thiol-containing compound efflux and cancer treatment” (National Jewish Health, priority 2002, dated 2010)
Where two headings read alike, the source gives them in different places.

Legend:
epithelial cells = experiment: Effects of compounds on extracellular GSH transport (Table 3); assay type: cell-based; details: Epithelial cell, read-out: % Increase Over Control (extracellular GSH)
A549 cells [1] = experiment: Intracellular GSH levels by HPLC-EC in A549 cells; assay type: cell-based, human; details: for Intracellular GSH levels, % compared to control / Int. GSH % con. / activity at 25 µM: A549, 25 μM
Protocol: (§1) Cell lines and culture conditions. Human lung epithelial cancer (A549), human leukemia HL-60 and human prostate (PC-3) tumor cells were purchased from ATCC (Manassas, Va.). A549 and PC-3 cells were grown in Ham's F12 medium (F12) and Kaighn's modification of Ham's F12 medium (F12K) with 2 mM L-glutamine (ATCC), respectively, supplemented with 10% fetal bovine serum (FBS) and 5% pen/strep (10,000 unit, Cellgro). HL-60 cells were grown in Iscove's modified Dulbecco's medium with 4 mM L-glutamine (ATCC) supplemented with 20% FBS and 5% pen/strep. Cell were grown in T-75 flask at 37° C. and 5% CO2 air atmosphere and in 24-well plates for GSH levels and LDH release measurements.
(§2) Intracellular levels of GSH. Intracellular GSH levels can be determined by HPLC-EC. Cultured cells from 24-well plates were washed once with 1 ml of PBS and then re-suspended in 0.5 ml of distilled water with 40 μM of digitonin (2 mM stock solution in DMSO) for 30 min at room temperature. Then, 50 μl of 10% meta-phosphoric acid were added (1% final concentration), the samples were sonicated for 2 min, centrifuged at 20,000 g for 10 min, and 0.2 ml of supernatant placed in vials for HPLC analysis. […] The flow rate was […]. The retention time for GSH in these conditions was 7.5 min. The HPLC instrument was from ESA, Inc. (Chelmsford, Mass.), equipped with an autosampler (model 540) and a Coul array detector (model 5600A). The potential applied was +0.75 V vs. H/Pd electrode, and the injection volume 5 μl.

HL-60 cells [2] = experiment: Intracellular GSH levels by HPLC-EC in HL-60 cells; assay type: cell-based, human; details: 24 hours treatment; for activity at 25 µM: Homo sapiens, HL-60, 25 μM, read-out: Int. GSH % con.
Protocol: as §1, §2

PC-3 cells [3] = experiment: Intracellular GSH levels by HPLC-EC in PC-3 cells; assay type: cell-based, human; details: PC-3, 25 μM, 24 hours treatment; for activity at 25 µM: Homo sapiens, read-out: Int. GSH % con.
Protocol: as §1, §2

A549 cells [4] = experiment: Cytotoxicity as LDH release in A549 cells; assay type: cell-based, human; details: 48 hours treatment; for LDH release, % of control at 50 µM: Homo sapiens, A549, 50 μM, read-out: LDH rel. % con.; for LDH rel. % con.: A549, 75 μM
Protocol: as §1
(§3) Assessment of cytotoxicity. In one exemplary method, membrane integrity of A549, HL-60 and PC-3 cells was used as an index of drug-induced cytotoxicity, and was assessed by monitoring the release of cytosolic lactate dehydrogenase (LDH). LDH activity was measured in the culture medium and cell lysates (50 mM HEPES, Triton X-100 0.5%, pH 7) using a plate reader format as previously described (41). Briefly, 5 μl of cell culture supernatant and lysates were incubated with 0.24 mM NADH in a Tris/NaCl pH 7.2 buffer in 96-well plates for 5 min at 25° C. The reaction was started by the addition of 9.8 mM pyruvate and the consumption of NADH followed at 340 nm for 5 min at 30° C. Percent LDH release was calculated by the following: (supernatant LDH/supernatant LDH+lysate LDH)×100.

HL-60 cells [5] = experiment: Cytotoxicity as LDH release in HL-60 cells; assay type: cell-based, human; details: for LDH release, % of control at 25 µM: Homo sapiens, HL-60, 25 μM, read-out: LDH rel. % con.; for LDH release, % of control at 25 µM / LDH rel. % con.: 48 hours treatment; for LDH rel. % con.: HL-60, 50 μM
Protocol: as §1, §3

PC-3 cells [6] = experiment: Cytotoxicity as LDH release in PC-3 cells; assay type: cell-based, human; details: PC-3, 50 μM, 48 hours treatment; for LDH release, % of control at 50 µM: Homo sapiens, read-out: LDH rel. % con.
Protocol: as §1, §3

HL-60 cells [7] = experiment: Cellular superoxide by flow cytometry with hydroethidine in HL-60 cells; assay type: cell-based, human; details: HL-60 cells, pre-treated 30 μM for 2 hours (FIG. 21B)
Protocol: Flow cytometry. In one exemplary method, cellular superoxide (O2^−) was measured by flow cytometry analysis using hydroethidine (HE) (30). Untreated and treated HL-60 cells (approximately 10^6) were exposed to HE (1 μM from 1 mM stock solutions in DMSO) for 30 min, then were centrifuged at 3,500 g for 15 min, and washed once with 1 ml ice-cold PBS. Cells were re-suspended in 0.5 ml ice-cold PBS, and HE oxidation product, i.e., ethidium bromide (EB), analyzed within 30 min using the red channel (PE) of a FACSCalibur flow cytometer from Becton Dickinson Biosciences (San Jose, Calif.). The total number of cell counts was 25,000.

## COc1ccc(CCN(C)CCCC(C#N)(c2ccc(OC)c(OC)c2)C(C)C)cc1OC (racemic) [Verapamil, (±)-verapamil, reference compound]
Epithelial cells; 10 μM
  activation at 10 µM: 113%
A549 cells [1]; Homo sapiens, A549, 50 μM, 24 hours treatment, read-out: Int. GSH % con.
  activity at 50 µM: 14%
HL-60 cells [2]
  activity at 25 µM: 63%
PC-3 cells [3]
  activity at 25 µM: 72%
A549 cells [4]
  LDH release, % of control at 50 µM: 130%
HL-60 cells [5]
  LDH release, % of control at 25 µM: 125%
PC-3 cells [6]
  LDH release, % of control at 50 µM: 93%

## O=C(O)c1cc(S(=O)(=O)O)ccc1O [5-Sulfosalicylic Acid]
Epithelial cells; 50 μM
  activation at 50 µM: 142%

## COc1ccc2cc3[n+](cc2c1OC)CCc1cc2c(cc1-3)OCO2 [Berberine]
Epithelial cells
  activation at 100 µM: 170%

## COc1ccc([C@@H]2Sc3ccccc3N(CCN(C)C)C(=O)[C@@H]2OC(C)=O)cc1 [Diltiazem, reference compound]
Epithelial cells
  activation at 100 µM: 119%

## O=c1c(-c2ccc(O)cc2)coc2cc(O)cc(O)c12 [Genistein]
A549 cells [1]; 4 h
  Intracellular GSH levels, % compared to control: 34.8 ± 1.1%
A549 cells [1]; 24 hours treatment
  Int. GSH % con.: 5 % con.
HL-60 cells [2]; HL-60, 75 μM
  Int. GSH % con.: 57 % con.
PC-3 cells [3]
  Int. GSH % con.: 81 % con.
A549 cells [4]
  LDH rel. % con.: 350 % con.
HL-60 cells [5]
  LDH rel. % con.: 160 % con.
PC-3 cells [6]
  LDH rel. % con.: 131 % con.

## O=c1c(O)c(-c2ccc(O)cc2)oc2cc(O)cc(O)c12 [Kaempferol, 3,5,7,4′quadrahydroxyflavone]
A549 cells [1]; 4 h
  Intracellular GSH levels, % compared to control: 29.6 ± 0.9%
A549 cells [1]; 24 hours treatment
  Int. GSH % con.: 7 % con.
HL-60 cells [2]; HL-60, 50 μM
  Int. GSH % con.: 75 % con.
PC-3 cells [3]
  Int. GSH % con.: 77 % con.
A549 cells [4]
  LDH rel. % con.: 173 % con.
HL-60 cells [5]
  LDH rel. % con.: 128 % con.
PC-3 cells [6]
  LDH rel. % con.: 115 % con.

## CN(C)C(=O)CCSC(SCCC(=O)O)c1cccc(/C=C/c2ccc3ccc(Cl)cc3n2)c1 (centres unmarked) [MK-571, reference compound]
A549 cells [1]; Homo sapiens, 2 h, read-out: Intracellular GSH levels, % compared to control
  activity at 25 µM: 62.6 ± 4.9%
A549 cells [1]; Homo sapiens, 4 h, read-out: Intracellular GSH levels, % compared to control
  activity at 25 µM: < 5%
A549 cells [1]; Homo sapiens, 24 hours treatment, read-out: Int. GSH % con.
  activity at 25 µM: < 5%
HL-60 cells [2]
  activity at 25 µM: 40%
PC-3 cells [3]
  activity at 25 µM: 41%
A549 cells [4]
  LDH release, % of control at 50 µM: 249%
HL-60 cells [5]
  LDH release, % of control at 25 µM: 169%
PC-3 cells [6]
  LDH release, % of control at 50 µM: 143%

## COc1ccccc1C(=O)O [Methylsalicylic Acid]
Epithelial cells
  activation at 100 µM: 169%

## CC[n+]1ccccc1-c1c2nc(c(-c3cccc[n+]3CC)c3ccc([n-]3)c(-c3cccc[n+]3CC)c3nc(c(-c4cccc[n+]4CC)c4ccc1[n-]4)C=C3)C=C2.[Mn+3] [MnTE-2-PyP, Manganese(III) meso-tetrakis(N-ethylpyridinium-2-yl)porphyrin, reference compound]
HL-60 cells [5]; HL-60 cells, 48 hours, compound 25 μM (FIG. 20A)
  effect on the toxicity of curcumin (25 μM), LDH release: attenuated
HL-60 cells [7]
  O2^− levels induced by curcumin after pre-treatment: lower levels of O2^− were detected
